What was measured:
[1] = test system: kochia; experiment: Test F preemergence; type: in vivo, Kochia scoparia
From the text: (§1) Seeds of plant species selected from corn (Zea mays), soybean (Glycine max), velvetleaf (Abutilon theophrasti), lambsquarters (Chenopodium album), wild poinsettia (Euphorbia heterophylla), pigweed, palmer (palmer pigweed, Amaranthus palmeri), common waterhemp (Amaranthus rudis), surinam grass (Brachiaria decumbens), large crabgrass (Digitaria sanguinalis), crabgrass, Brazil (Brazilian crabgrass, Digitaria horizontalis), fall panicum (Panicum dichotomiflorum), giant foxtail (Setaria faberii), green foxtail (Setaria viridis), goosegrass (Eleusine indica), johnsongrass (Sorghum halepense), common ragweed (Ambrosia elation), barnyardgrass (Echinochloa crus-galli), southern sandbur (Cenchrus echinatus), arrowleaf sida (Sida rhombifolia), Italian ryegrass (Lolium multiflorum), dayflower, VA (Virginia (VA) dayflower, Commelina virginica), field bindweed (Convolvulus arvensis), cocklebur (common cocklebur, Xanthium strumarium), morningglory (Ipomoea coccinea), nightshade (eastern black nightshade, Solanum ptycanthum), kochia (Kochia scoparia), yellow nutsedge (Cyperus esculentus), and hairy beggarticks (Bidens pilosa), were planted into a silt loam soil and treated preemergence with test chemicals formulated in a non-phytotoxic solvent mixture which included a surfactant.
(§2) At the same time, plants from these crop and weed species and also horseweed (Canada horseweed, Conyza canadensis), smartweed (ladysthumb smartweed, Polygonum persicaria), waterhemp_RES1, (ALS & Triazine resistant common waterhemp, Amaranthus rudis), and waterhemp_RES2, (ALS & HPPD resistant common waterhemp, Amaranthus rudis) were treated with postemergence applications of test chemicals formulated in the same manner. Plants ranged in height from 2 to 18 cm for postemergence treatments (1- to 4-leaf stage). Treated plants and controls were maintained in a greenhouse for 14 to 21 days, after which time all species were compared to controls and visually evaluated. Plant response ratings, summarized in Table F, are based on a scale of 0 to 100 where 0 is no effect and 100 is complete control. A dash (-) response means no test result.

[2] = test system: lambsquarters; experiment: Test F preemergence; type: in vivo, Chenopodium album
From the text: as §1, §2

[3] = test system: foxtail, green; experiment: Test C postemergence; type: in vivo, Setaria viridis; details: for Foxtail, Green plant response rating: scale 0 to 100
From the text: (§3) Seeds of plant species selected from blackgrass (Alopecurus myosuroides), ryegrass, Italian (Italian ryegrass, Lolium multiflorum), wheat (winter wheat, Triticum aestivum), galium (catchweed bedstraw, Galium aparine), corn (Zea mays), crabgrass, large (large crabgrass, Digitaria sanguinalis), foxtail, giant (giant foxtail, Setaria faberii), johnsongrass (Sorghum halepense), lambsquarters (Chenopodium album), morningglory (Ipomoea coccinea), nutsedge, yellow (yellow nutsedge, Cyperus esculentus), pigweed (redroot pigweed, Amaranthus retroflexus), ragweed (common ragweed, Ambrosia elation), soybean (Glycine max), barnyardgrass (Echinochloa crus-galli), oilseed rape (Brassica napus), waterhemp (common waterhemp, Amaranthus rudis), oat, wild (wild oat, Avena fatua), kochia (Kochia scoparia), Surinam grass (Brachiaria decumbens), foxtail, green (green foxtail, Setaria viridis), goosegrass (Eleusine indica), bromegrass, downy (downy bromegrass, Bromus tectorum), nightshade (eastern black nightshade, Solanum ptycanthum), cocklebur (common cocklebur, Xanthium strumarium), cupgrass, woolly (woolly cupgrass, Eriochloa villosa), bermudagrass (Cynodon dactylon), sunflower, (common oilseed sunflower, Helianthus annuus), Russian thistle (Salsola kali), and velvetleaf (Abutilon theophrasti) were planted into a blend of loam soil and sand and treated preemergence with test chemicals formulated in a non-phytotoxic solvent mixture which included a surfactant.
(§4) At the same time, plants selected from these crop and weed species and also chickweed (common chickweed, Stellaria media), canarygrass (littleseed canarygrass, Phalaris minor), and deadnettle (henbit deadnettle, Lamium amplexicaule), were planted in pots containing Redi-Earth® planting medium (Scotts Company, 14111 Scottslawn Road, Marysville, Ohio 43041) comprising spaghnum peat moss, vermiculite, wetting agent and starter nutrients and treated with postemergence applications of test chemicals formulated in the same manner. Plants ranged in height from 2 to 18 cm (1- to 4-leaf stage) for postemergence treatments. Treated plants and controls were maintained in a greenhouse for 13 to 15 days, after which time all species were compared to controls and visually evaluated. Plant response ratings, summarized in Table C, are based on a scale of 0 to 100 where 0 is no effect and 100 is complete control. A dash (-) response means no test result.

[4] = test system: barley; experiment: Test C postemergence; type: in vivo, Hordeum vulgare
[5] = test system: cocklebur; experiment: Test C postemergence; type: in vivo, Xanthium strumarium; details: for Cocklebur plant response rating: scale 0 to 100
From the text: as §3, §4

[6] = test system: barley; experiment: Test C postemergence; type: in vivo, Hordeum vulgare; details: scale 0 to 100, 0 no effect, 100 complete control
[7] = test system: bromegrass, downy; experiment: Test C preemergence; type: in vivo, Bromus tectorum; details: for Plant response rating (scale of 0 to 100), Bromegrass, Downy: Preemergence, 250 g ai/ha; for Bromegrass, Downy plant response rating / Plant response rating, Bromegrass, Downy: preemergence; for Plant response rating, Bromegrass, Downy: 62 g ai/ha, scale 0 to 100, 0 = no effect, 100 = complete control
From the text: as §3, §4

[8] = test system: Italian ryegrass; experiment: Test A preemergence; type: in vivo, Lolium multiflorum
How it was run: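 Visual injury ratings, 0 = no effect to 100 = complete control, taken about 10 days after treatment against untreated controls. Test chemicals, in a non-phytotoxic surfactant-containing solvent, were sprayed onto soil preemergence or onto one- to two-leaf plants (2–10 cm) postemergence, in loam–sand soil under greenhouse conditions.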

[9] = Preemergence, 62 g ai/ha, scale 0 to 100
[10] = Preemergence, 125 g ai/ha, scale 0 to 100
[11] = Preemergence, 250 g ai/ha, scale 0 to 100
[12] = preemergence, 16 g ai/ha, scale 0 to 100, 100 is complete control
[13] = postemergence, 250 g ai/ha, scale 0 to 100 (0 no effect, 100 complete control)
[14] = postemergence, 62 g ai/ha, scale 0 to 100, 0 no effect, 100 complete control
[15] = postemergence, 125 g ai/ha, scale 0 to 100, 0 no effect, 100 complete control
[16] = 125 g ai/ha, scale 0 to 100, 0 no effect, 100 complete control
[17] = 250 g ai/ha, scale 0 to 100 (0 no effect, 100 complete control)
[18] = 31 g ai/ha, scale 0 to 100 (0 no effect, 100 complete control), 13 to 15 days
[19] = 125 g ai/ha, scale 0 to 100, 0 is no effect, 100 is complete control

SMILES | Foxtail, Green plant response rating ([3]; Postemergence, 31 g ai/ha) | Plant response rating, Foxtail, Green [3, 13] | Plant response rating, Foxtail, Green [3, 14] | Plant response rating, Foxtail, Green [3, 15] | Plant response rating, Barley [4, 17] | Cocklebur plant response rating ([5]; Postemergence, 31 g ai/ha) | Plant response rating, Cocklebur [5, 13] | Plant response rating, Cocklebur [5, 14] | Plant response rating, Cocklebur [5, 15] | Plant response rating, Barley ([6]; 62 g ai/ha) | Plant response rating (scale of 0 to 100), Bromegrass, Downy [7] | Bromegrass, Downy plant response rating [7, 18] | Plant response rating, Bromegrass, Downy ([7]; 13 to 15 days) | Bromegrass, Downy plant response rating [7, 19] | Plant response rating, Barley ([6]; 125 g ai/ha) | other results
CCCc1cc(C(=O)NC(C)C)nn1Cc1cc(C(F)(F)F)nn1C [Compound 201] |  |  |  |  |  |  |  |  |  |  |  |  |  |  |  | Plant response rating, Kochia [1, 9]: 90; Plant response rating, Kochia [1, 10]: 100; Plant response rating, Kochia [1, 11]: 100; Plant response rating, Kochia [1, 12]: 0; Plant response rating, Lambsquarters [2, 9]: 70; Plant response rating, Lambsquarters [2, 10]: 100; Plant response rating, Lambsquarters [2, 11]: 100; Plant response rating, Lambsquarters [2, 12]: 0
CCc1cc(C(=O)NCC(F)(F)F)nn1Cc1cccc(OC(F)(F)F)c1 [Compound 20] | 20 | 60 | 30 | 55 | 30 | 20 | 40 | 35 | 35 | 20 |  |  |  |  |  | Plant response rating, Barley [4, 16]: 30
CCc1cc(C(=O)NOC(C)C)nn1Cc1cccc(OC(F)(F)F)c1 [Compound 70] |  | 80 | 5 | 80 | 25 | 10 | 45 | 15 | 20 | 5 | 80 | 20 | 35 | 40 | 10 | 
CCCNC(=O)c1cc(CC)n(Cc2cccc(OC(F)(F)F)c2)n1 [Compound 27] | 25 | 50 | 30 | 30 | 30 | 20 | 40 | 25 | 35 | 20 |  |  |  |  |  | Plant response rating, Barley [4, 16]: 20
CCCNC(=O)c1cc(OCC)n(Cc2ccnc(OC(F)F)c2)n1 [Compound 136] |  |  |  |  |  |  |  |  |  |  |  |  |  |  |  | Italian Ryegrass plant response rating ([8]; 125 g ai/ha, visual injury, 0 to 100 scale, approx. 10 days): 30; Italian Ryegrass plant response rating ([8]; 500 g ai/ha, visual injury after approx. 10 days, 0 to 100 scale (0 no effect, 100 complete control)): 100
CCONC(=O)c1cc(CC)n(Cc2cccc(OC(F)(F)F)c2)n1 [Compound 72] | 20 | 40 |  | 40 | 10 | 0 | 15 |  | 5 |  | 90 | 5 | 45 | 80 | 5 | Foxtail, Green plant response rating ([3]; postemergence, 62 g ai/ha): 40; Cocklebur plant response rating ([5]; postemergence, 62 g ai/ha): 0
Cc1cc(C(=O)NCC(F)(F)F)nn1Cc1ccnc(C(F)(F)F)c1 [Compound 74] | 0 | 5 |  | 0 | 5 | 20 | 55 |  | 50 |  | 95 | 0 | 5 | 50 | 0 | Foxtail, Green plant response rating ([3]; postemergence, 62 g ai/ha): 0; Cocklebur plant response rating ([5]; postemergence, 62 g ai/ha): 20

— US20150105252A1, “SUBSTITUTED PYRAZOLES AS HERBICIDES” (E I DU PONT DE NEMOURS AND COMPANY, priority 2013, published 2015)
